Source: patent US20240050428A1 (Cullgen (Shanghai), Inc., priority 2020, published 2024)
Like-named read-outs stand apart in the source and are kept apart here.

How the values were obtained:
MV4;11 cells = experiment: Cell viability assay (CellTiter-Glo) in MV4;11 cells, alone or with gilteritinib; assay type: cell-based; conditions: MV4;11 cells, three days, CellTiter-Glo, read-out: MV4
MOLM-13 cells = experiment: Cell viability assay (CellTiter-Glo) in MOLM-13 cells, alone or with gilteritinib; assay type: cell-based; conditions: Homo sapiens, MOLM-13, 72 h, MOLM-13 cells, three days, CellTiter-Glo
[1] = Homo sapiens, MV4-11, 72 h, compound alone (without gilteritinib), 11 IC50
[2] = Homo sapiens, MV4-11, 72 h, with gilteritinib 10 nM, 11 IC50 gilteritinib
[3] = compound alone (without gilteritinib), read-out: MOLM-13 IC50
[4] = with gilteritinib 20 nM, read-out: MOLM-13 IC50 gilteritinib

Structure (SMILES) | IC50 (MV4;11 cells; [1]) [nM] | IC50 (MV4;11 cells; [2]) [nM] | IC50 (MOLM-13 cells; [3]) [nM] | IC50 (MOLM-13 cells; [4]) [nM] | IC50 (MV4;11 cells; compound alone (without gilteritinib), 11 IC50) [nM]
O=C1CCC(N2C(=O)c3ccc(NCCC[C@H]4C[C@H](n5cc(-c6cnccn6)cn5)C4)cc3C2=O)C(=O)N1 (stereo partly drawn) [GS-235, 2-(2,6-Dioxopiperidin-3-yl)-5-((3-(trans-3-(4-(pyrazin-2-yl)-1H-pyrazol-1-yl)cyclobutyl)propyl)amino)isoindoline-1,3-dione] | < 10 | 100 to 1000 | > 1000 | 100 to 1000 | –
O=C1CCC(N2C(=O)c3ccc(NCCC[C@H]4C[C@H](n5cc(-c6cccc(C7CCOCC7)n6)cn5)C4)cc3C2=O)C(=O)N1 (stereo partly drawn) [GS-236, 2-(2,6-Dioxopiperidin-3-yl)-5-((3-(trans-3-(4-(6-(tetrahydro-2H-pyran-4-yl)pyridin-2-yl)-1H-pyrazol-1-yl)cyclobutyl)propyl)amino)isoindoline-1,3-dione] | 100 to 1000 | 10 to 100 | 100 to 1000 | 10 to 100 | –
CN1CCC(c2cccc(-c3cnn([C@H]4C[C@H](CCCNc5ccc6c(c5)C(=O)N(C5CCC(=O)NC5=O)C6=O)C4)c3)n2)CC1 (stereo partly drawn) [GS-237, 2-(2,6-Dioxopiperidin-3-yl)-5-((3-(trans-3-(4-(6-(1-methylpiperidin-4-yl)pyridin-2-yl)-1H-pyrazol-1-yl)cyclobutyl)propyl)amino)isoindoline-1,3-dione] | > 1000 | 100 to 1000 | > 1000 | 100 to 1000 | –
O=C1CCC(N2C(=O)c3ccc(NCCC[C@H]4C[C@H](n5cc(-c6cccc(C7CCNCC7)n6)cn5)C4)cc3C2=O)C(=O)N1 (stereo partly drawn) [GS-238, 2-(2,6-Dioxopiperidin-3-yl)-5-((3-(trans-3-(4-(6-(piperidin-4-yl)pyridin-2-yl)-1H-pyrazol-1-yl)cyclobutyl)propyl)amino)isoindoline-1,3-dione] | 100 to 1000 | 10 to 100 | 10 to 100 | 10 to 100 | –
O=C1CCC(N2C(=O)c3ccc(NCCC[C@H]4C[C@H](n5cc(-c6ccnc(N7CCOCC7)n6)cn5)C4)cc3C2=O)C(=O)N1 (stereo partly drawn) [GS-239, 2-(2,6-Dioxopiperidin-3-yl)-5-((3-(trans-3-(4-(2-morpholinopyrimidin-4-yl)-1H-pyrazol-1-yl)cyclobutyl)propyl)amino)isoindoline-1,3-dione] | 100 to 1000 | 10 to 100 | > 1000 | 10 to 100 | –
O=C1CCC(N2C(=O)c3ccc(NCCC[C@H]4C[C@H](n5cc(-c6nccc(N7CCOCC7)n6)cn5)C4)cc3C2=O)C(=O)N1 (stereo partly drawn) [GS-240, 2-(2,6-Dioxopiperidin-3-yl)-5-((3-(trans-3-(4-(4-morpholinopyrimidin-2-yl)-1H-pyrazol-1-yl)cyclobutyl)propyl)amino)isoindoline-1,3-dione] | 10 to 100 | < 10 | 100 to 1000 | 10 to 100 | –
O=C1CCC(N2C(=O)c3ccc(NCCC[C@H]4C[C@H](n5cc(-c6cccc(N7CCOCC7)c6)cn5)C4)cc3C2=O)C(=O)N1 (stereo partly drawn) [GS-241, 2-(2,6-Dioxopiperidin-3-yl)-5-((3-(trans-3-(4-(3-morpholinophenyl)-1H-pyrazol-1-yl)cyclobutyl)propyl)amino)isoindoline-1,3-dione] | 100 to 1000 | 100 to 1000 | > 1000 | 100 to 1000 | –
O=C1CCC(N2C(=O)c3ccc(NCCC[C@H]4C[C@H](n5cc(-c6ncccn6)cn5)C4)cc3C2=O)C(=O)N1 (stereo partly drawn) [GS-242, 2-(2,6-Dioxopiperidin-3-yl)-5-((3-(trans-3-(4-(pyrimidin-2-yl)-1H-pyrazol-1-yl)cyclobutyl)propyl)amino)isoindoline-1,3-dione] | > 1000 | 100 to 1000 | > 1000 | 100 to 1000 | –
O=C1CCC(N2C(=O)c3ccc(NCCC[C@H]4C[C@H](n5cc(-c6cnc7ccccc7n6)c(C(F)F)n5)C4)cc3C2=O)C(=O)N1 (stereo partly drawn) [GS-243, 5-((3-(trans-3-(3-(Difluoromethyl)-4-(quinoxalin-2-yl)-1H-pyrazol-1-yl)cyclobutyl)propyl)amino)-2-(2,6-dioxopiperidin-3-yl)isoindoline-1,3-dione] | 10 to 100 | < 10 | 10 to 100 | < 10 | –
Cc1nn([C@H]2C[C@H](CCCNc3ccc4c(c3)C(=O)N(C3CCC(=O)NC3=O)C4=O)C2)cc1-c1cccc(N2CCOCC2)n1 (stereo partly drawn) [GS-244, 2-(2,6-Dioxopiperidin-3-yl)-5-((3-(trans-3-(3-methyl-4-(6-morpholinopyridin-2-yl)-1H-pyrazol-1-yl)cyclobutyl)propyl)amino)isoindoline-1,3-dione] | 100 to 1000 | 10 to 100 | > 1000 | 10 to 100 | –
CN1CCN(c2cccc(-c3cnn([C@H]4C[C@H](CCCNc5ccc6c(c5)C(=O)N(C5CCC(=O)NC5=O)C6=O)C4)c3)n2)CC1 (stereo partly drawn) [GS-245, 2-(2,6-Dioxopiperidin-3-yl)-5-((3-(trans-3-(4-(6-(4-methylpiperazin-1-yl)pyridin-2-yl)-1H-pyrazol-1-yl)cyclobutyl)propyl)amino)isoindoline-1,3-dione] | – | 10 to 100 | > 1000 | 100 to 1000 | > 1000
O=C1CCC(N2C(=O)c3ccc(NCCC[C@H]4C[C@H](n5cc(-c6cccc(N7CCOCC7)n6)c(C6CC6)n5)C4)cc3C2=O)C(=O)N1 (stereo partly drawn) [GS-246, 5-((3-(trans-3-(3-Cyclopropyl-4-(6-morpholinopyridin-2-yl)-1H-pyrazol-1-yl)cyclobutyl)propyl)amino)-2-(2,6-dioxopiperidin-3-yl)isoindoline-1,3-dione] | 100 to 1000 | 10 to 100 | > 1000 | 100 to 1000 | –
O=C1CCC(N2C(=O)c3ccc(NCCC[C@H]4C[C@H](n5cc(-c6cccc(N7CCNCC7)n6)cn5)C4)cc3C2=O)C(=O)N1 (stereo partly drawn) [GS-247, 2-(2,6-Dioxopiperidin-3-yl)-5-((3-(trans-3-(4-(6-(piperazin-1-yl)pyridin-2-yl)-1H-pyrazol-1-yl)cyclobutyl)propyl)amino)isoindoline-1,3-dione] | 100 to 1000 | < 10 | > 1000 | 10 to 100 | –
CN(C)c1cccc(-c2cnn([C@H]3C[C@H](CCCNc4ccc5c(c4)C(=O)N(C4CCC(=O)NC4=O)C5=O)C3)c2)n1 (stereo partly drawn) [GS-248, 5-((3-(trans-3-(4-(6-(Dimethylamino)pyridin-2-yl)-1H-pyrazol-1-yl)cyclobutyl)propyl)amino)-2-(2,6-dioxopiperidin-3-yl)isoindoline-1,3-dione] | 10 to 100 | 10 to 100 | > 1000 | 10 to 100 | –
O=C1CCC(N2C(=O)c3ccc(NCCC[C@H]4C[C@H](n5cc(-c6cccc(=O)[nH]6)cn5)C4)cc3C2=O)C(=O)N1 (stereo partly drawn) [GS-249, 2-(2,6-Dioxopiperidin-3-yl)-5-((3-(trans-3-(4-(6-oxo-1,6-dihydropyridin-2-yl)-1H-pyrazol-1-yl)cyclobutyl)propyl)amino)isoindoline-1,3-dione] | 100 to 1000 | > 1000 | > 1000 | 100 to 1000 | –
O=C1CCC(N2C(=O)c3ccc(NCCC[C@H]4C[C@H](n5cc(-c6cnc7c(C8CNC8)cccc7n6)cn5)C4)cc3C2=O)C(=O)N1 (stereo partly drawn) [GS-250, 5-((3-(trans-3-(4-(5-(Azetidin-3-yl)quinoxalin-2-yl)-1H-pyrazol-1-yl)cyclobutyl)propyl)amino)-2-(2,6-dioxopiperidin-3-yl)isoindoline-1,3-dione] | 100 to 1000 | 10 to 100 | 100 to 1000 | 10 to 100 | –
CNc1cccc(-c2cnn([C@H]3C[C@H](CCCNc4ccc5c(c4)C(=O)N(C4CCC(=O)NC4=O)C5=O)C3)c2)n1 (stereo partly drawn) [GS-251, 2-(2,6-Dioxopiperidin-3-yl)-5-((3-(trans-3-(4-(6-(methylamino)pyridin-2-yl)-1H-pyrazol-1-yl)cyclobutyl)propyl)amino)isoindoline-1,3-dione] | 100 to 1000 | 10 to 100 | 100 to 1000 | 10 to 100 | –
O=C1CCC(N2C(=O)c3ccc(NCCC[C@H]4C[C@H](n5cc(-c6cccc(N7CCC(O)CC7)n6)cn5)C4)cc3C2=O)C(=O)N1 (stereo partly drawn) [GS-252, 2-(2,6-Dioxopiperidin-3-yl)-5-((3-(trans-3-(4-(6-(4-hydroxypiperidin-1-yl)pyridin-2-yl)-1H-pyrazol-1-yl)cyclobutyl)propyl)amino)isoindoline-1,3-dione] | 100 to 1000 | > 1000 | > 1000 | > 1000 | –
Cc1ccnc(-c2cn([C@H]3C[C@H](CNc4ccc5c(c4)C(=O)N(C4CCC(=O)NC4=O)C5=O)C3)nc2C2CC2)c1 (stereo partly drawn) [GS-253, 5-(((trans-3-(3-Cyclopropyl-4-(4-methylpyridin-2-yl)-1H-pyrazol-1-yl)cyclobutyl)methyl)amino)-2-(2,6-dioxopiperidin-3-yl)isoindoline-1,3-dione] | < 10 | < 10 | 10 to 100 | < 10 | –
COc1ccnc(-c2cn([C@H]3C[C@H](CNc4ccc5c(c4)C(=O)N(C4CCC(=O)NC4=O)C5=O)C3)nc2C2CC2)c1 (stereo partly drawn) [GS-254, 5-(((trans-3-(3-Cyclopropyl-4-(4-methoxypyridin-2-yl)-1H-pyrazol-1-yl)cyclobutyl)methyl)amino)-2-(2,6-dioxopiperidin-3-yl)isoindoline-1,3-dione] | 10 to 100 | < 10 | 10 to 100 | < 10 | –
O=C1CCC(N2C(=O)c3ccc(NC[C@H]4C[C@H](n5cc(-c6ccc(Cl)cn6)c(C6CC6)n5)C4)cc3C2=O)C(=O)N1 (stereo partly drawn) [GS-255, 5-(((trans-3-(4-(5-Chloropyridin-2-yl)-3-cyclopropyl-1H-pyrazol-1-yl)cyclobutyl)methyl)amino)-2-(2,6-dioxopiperidin-3-yl)isoindoline-1,3-dione] | 10 to 100 | < 10 | 100 to 1000 | < 10 | –
